# Test results reported in patent publication US7834023B2 (Portola Pharmaceuticals, Inc., priority 2006, dated 2010).
# Legend:
# [1] = tested on: human platelet-rich plasma (PRP); assay: PRP assay: inhibition of ADP-mediated platelet aggregation in vitro; type: cell-based; details: Homo sapiens, Platelet, ADP-induced aggregation
# Protocol: The effect of testing the compound according to the invention on ADP-induced human platelet aggregation was assessed in a 96-well microtiter assay (see generally the procedures in Jantzen, H. M. et al. (1999) Thromb. Hemost. 81:111-117) or standard cuvette light transmittance aggregometry using either human platelet-rich plasma (PRP) or human washed platelets.
# For preparation of human platelet-rich plasma for aggregation assays, human venous blood was collected from healthy, drug-free volunteers into 0.38% sodium citrate (0.013 M, pH 7.0 final). Platelet-rich plasma (PRP) is prepared by centrifugation of whole blood at 160×g for 20 minutes at room temperature. The PRP layer is removed, transferred to a new tube, and the platelet count is adjusted, if necessary, to achieve a platelet concentration of ˜3×10^8 platelets/ml using platelet-poor plasma (PPP). PPP is prepared by centrifugation of the remaining blood sample (after removal of PRP) for 20 minutes at 800×g. This preparation of PRP can subsequently be used for aggregation assays in either a 96-well plate or standard cuvette aggregometry.
# For cuvette light transmittance aggregation assays, serial dilutions (1:3) of test compounds were prepared in 100% DMSO in a 96 well V-bottom plate (final DMSO concentration in the cuvette was 0.6%). The test compound (3 μl of serial dilutions in DMSO) was preincubated with PRP for 30-45 seconds prior to initiation of aggregation reactions, which were performed in a ChronoLog aggregometer by addition of agonist (5 or 10 μM ADP) to 490 μL of PRP at 37° C. In some cases, light transmittance aggregometry was performed using 490 μL of washed platelets (prepared as described above) at 37° C., and aggregation was initiated by addition of 5 μM ADP and 0.5 mg/ml human fibrinogen (American Diagnostics, Inc., Greenwich, Conn.). The aggregation reaction is recorded for ˜5 min, and maximum extent of aggregation is determined by the difference in extent of aggregation at baseline, compared to the maximum aggregation that occurs during the five minute period of the assay. Inhibition of aggregation was calculated as the maximum aggregation observed in the presence of inhibitor, compared to that in the absence of inhibitor. IC50s were derived by non-linear regression analysis using the Prism software (GraphPad, San Diego, Calif.).
# Inhibition of ADP-dependent aggregation was also determined in 96-well flat-bottom microtiter plates using a microtiter plate shaker and plate reader similar to the procedure described by Frantantoni et al., Am. J. Clin. Pathol. 94, 613 (1990). All steps are performed at room temperature. For 96-well plate aggregation using platelet-rich plasma (PRP), the total reaction volume of 0.2 ml/well includes 180 μl of PRP (˜3×10^8 platelets/ml, see above), 6 μl of either serial dilution of test compounds in 20% DMSO or buffer (for control wells), and 10 μl of 20×ADP agonist solution (100 μM). The OD of the samples is then determined at 450 nm using a microtiter plate reader (Softmax, Molecular Devices, Menlo Park, Calif.) resulting in the 0 minute reading. The plates are then agitated for 5 min on a microtiter plate shaker and the 5 minute reading is obtained in the plate reader. Aggregation is calculated from the decrease of OD at 450 nm at t=5 minutes compared to t=0 minutes and is expressed as % of the decrease in the ADP control samples after correcting for changes in the unaggregated control samples. IC50s were derived by non-linear regression analysis.
# [2] = target: T1, P2Y12 receptor (Homo sapiens, UniProt Q9H244); assay: platelet ADP receptor binding assay (ARB): inhibition of [3H]2-MeS-ADP binding to platelets; details: [3H]2-MeS-ADP binding to apyrase-washed human platelets
# T1 construct: endogenous in cells; host or cells: human platelets (outdated from blood banks or fresh), apyrase-washed, whole
# Outline: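 Apyrase-washed human platelets (1×10^8 per well) were preincubated 5 min with serial compound dilutions in Hepes-Tyrode's/0.1% BSA/0.6% DMSO, then incubated 15 min at room temperature with 1 nM [3H]2-MeS-ADP. Filter-bound radioactivity gave specific binding (nonspecific: 10 μM 2-MeS-ADP), and IC50s came from non-linear regression.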
# T1 sequence (Q9H244 whole entry): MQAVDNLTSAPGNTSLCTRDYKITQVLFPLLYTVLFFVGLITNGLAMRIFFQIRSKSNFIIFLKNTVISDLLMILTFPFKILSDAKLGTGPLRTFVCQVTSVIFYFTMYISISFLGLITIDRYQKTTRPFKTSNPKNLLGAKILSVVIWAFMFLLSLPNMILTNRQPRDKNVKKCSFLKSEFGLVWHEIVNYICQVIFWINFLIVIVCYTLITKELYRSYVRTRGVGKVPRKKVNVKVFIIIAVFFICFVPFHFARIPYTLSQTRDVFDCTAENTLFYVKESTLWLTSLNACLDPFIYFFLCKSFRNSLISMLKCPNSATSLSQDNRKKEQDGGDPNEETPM
SMILES,IC50 [1] [nM],IC50 [2] [nM]
"CNc1cc2[nH]c(=O)n(-c3ccc(C(=O)NC(c4noc(=S)[nH]4)c4ccc(Cl)s4)cc3)c(=O)c2cc1F (stereo not shown) [Compound 32, N-((5-chlorothiophen-2-yl)(5-thioxo-4,5-dihydro-1,2,4-oxadiazol-3-yl)methyl)-4-(6-fluoro-7-(methylamino)-2,4-dioxo-1,2-dihydroquinazolin-3(4H)-yl)benzamide]",< 10000,50 to 500
"CNc1cc2[nH]c(=O)n(-c3ccc(C(=O)NC(c4noc(=O)[nH]4)c4ccc(Cl)s4)cc3OC)c(=O)c2cc1F (stereo not shown) [Compound 53, N-((5-chlorothiophen-2-yl)(5-oxo-4,5-dihydro-1,2,4-oxadiazol-3-yl)methyl)-4-(6-fluoro-7-(methylamino)-2,4-dioxo-1,2-dihydroquinazolin-3(4H)-yl)-3-methoxybenzamide]",> 30000,50 to 500
"CNc1cc2c(cc1F)C(=O)N(c1ccc(C(=O)NC(C(=O)O)c3cccc(Cl)c3)cc1)CO2 (stereo not shown) [Compound 81, 2-(3-chlorophenyl)-2-(4-(6-fluoro-7-(methylamino)-4-oxo-2H-benzo[e][1,3]oxazin-3(4H)-yl)benzamido)acetic acid]",> 30000,50 to 500
"CNc1cc2[nH]c(=O)n(-c3ccc(C(=O)NC(CC(=O)O)c4ccc(Cl)s4)cc3)c(=O)c2cc1F (stereo not shown) [Compound 27, 3-(5-chlorothiophen-2-yl)-3-(4-(6-fluoro-7-(methylamino)-2,4-dioxo-1,2-dihydroquinazolin-3(4H)-yl)benzamido)propanoic acid]",> 30000,50 to 500
"CNc1cc2ccn(-c3ccc(C(=O)NC(c4nnn[nH]4)c4ccc(Cl)s4)cc3)c(=O)c2cc1F (stereo not shown) [Compound 91, N-((5-chlorothiophen-2-yl)(1H-tetrazol-5-yl)methyl)-4-(7-fluoro-6-(methylamino)-1-oxoisoquinolin-2(1H)-yl)benzamide]",10000 to 30000,< 50
"CNc1cc2[nH]c(=O)n(-c3ccc(C(=O)NC(C(=O)O)c4ccc(Cl)s4)c(F)c3)c(=O)c2cc1F (stereo not shown) [Compound 44, 2-(5-chlorothiophen-2-yl)-2-(2-fluoro-4-(6-fluoro-7-(methylamino)-2,4-dioxo-1,2-dihydroquinazolin-3(4H)-yl)benzamido)acetic acid]",10000 to 30000,50 to 500
CNc1cc2c(cc1F)C(=O)N(c1ccc(C(=O)NC(C(N)=O)c3ccc(Cl)s3)cc1)CO2 (stereo not shown) [Compound 70],10000 to 30000,50 to 500
"CNc1cc2c(cc1F)C(=O)N(c1ccc(C(=O)NC(c3cccc(Cl)c3)c3nnn[nH]3)cc1)CO2 (stereo not shown) [Compound 80, N-((3-chlorophenyl)(1H-tetrazol-5-yl)methyl)-4-(6-fluoro-7-(methylamino)-4-oxo-2H-benzo[e][1,3]oxazin-3(4H)-yl)benzamide]",> 30000,50 to 500
"CNc1cc2ccn(-c3ccc(C(=O)NC(C(=O)O)c4ccc(Cl)s4)cc3)c(=O)c2cc1F (stereo not shown) [Compound 90, 2-(5-chlorothiophen-2-yl)-2-(4-(7-fluoro-6-(methylamino)-1-oxoisoquinolin-2(1H)-yl)benzamido)acetic acid]",10000 to 30000,< 50
"CNc1cc2[nH]c(=O)n(-c3ccc(C(=O)N(CC(=O)O)Cc4ccc(Cl)s4)cc3)c(=O)c2cc1F [Compound 6, 2-(N-((5-chlorothiophen-2-yl)methyl)-4-(6-fluoro-7-(methylamino)-2,4-dioxo-1,2-dihydroquinazolin-3(4H)-yl)benzamido)acetic acid]",> 30000,50 to 500
"CNc1cc2c(cc1F)C(=O)N(c1ccc(C(=O)N[C@@H](C(=O)O)c3ccc(Cl)s3)cc1)CO2 [Compound 62, (S)-2-(5-chlorothiophen-2-yl)-2-(4-(6-fluoro-7-(methylamino)-4-oxo-2H-benzo[e][1,3]oxazin-3(4H)-yl)benzaamido)acetic acid]",> 30000,< 50
